Data reported in article PMC6968511 (Journal of Enzyme Inhibition and Medicinal Chemistry, 2019).

Columns and labels:
[1] = tested on: HT-29 (human colorectral cancer); assay: MTT cytotoxicity assay; assay type: cell-based; details: tested up to 100 μM (data not shown)
[2] = tested on: H9C2 (normal, rat myocytes); assay: MTT cytotoxicity assay; assay type: cell-based; details: tested up to 100 μM (data not shown)
[3] = tested on: HepG2 (human liver carcinoma); assay: MTT cytotoxicity assay; assay type: cell-based; details: tested up to 100 μM (data not shown)
MTT cytotoxicity assay = assay type: cell-based, human; details: human, HCEC (human corneal epithelial) cells
[4] = tested on: HCEC (human corneal epithelial cell); assay: MTT cytotoxicity assay; assay type: cell-based; details: MTT, tested up to 100 μM (data not shown)
Solubility in water = assay type: physicochemical
hypertensive rabbits = assay: Hypertensive rabbit IOP lowering study; assay type: in vivo; details: topical
[5] = one drop (50 μL) of 1% solution (BRZ 1% suspension)

Structure (SMILES)	toxicity to HT-29 cells [1]	toxicity to H9C2 cells [2]	toxicity to HepG2 cells [3]	viability at 96 h, 1 % (MTT cytotoxicity assay) [%]	viability at 96 h, 2 % (MTT cytotoxicity assay) [%]	toxicity to HCEC cells [4]	Solubility (Solubility in water) [%]	return to basal IOP values (hypertensive rabbits; 1% suspension) [h]	maximal IOP lowering (hypertensive rabbits; [5])	time of maximal IOP lowering effect post-administration (hypertensive rabbits; [5]) [h]
CC(=O)Nc1nnc(S(N)(=O)=O)s1 [AAZ, acetazolamide]	did not display any appreciable toxicity	did not display any appreciable toxicity	did not display any appreciable toxicity	80	10	did not display any appreciable toxicity	0.21			
CCN[C@H]1CN(CCCOC)S(=O)(=O)c2sc(S(N)(=O)=O)cc21 [BRZ, brinzolamide]	did not display any appreciable toxicity	did not display any appreciable toxicity	did not display any appreciable toxicity	40		did not display any appreciable toxicity	0.05	3	around 5 mm Hg	1
CCN[C@H]1C[C@H](C)S(=O)(=O)c2sc(S(N)(=O)=O)cc21 [DZA, dorzolamide]							0.67			
